Structures are written as SMILES. Read-outs that look alike come from different tables or passages of the source.

The target in assay [1] is Mcl-1 protein (UniProtKB primary accession number: Q07820) (Homo sapiens, UniProt Q07820). Nature of the assay: Inhibition of Mcl-1 by fluorescence polarisation, Method 1. The class given is binding. As to conditions: read-out: IC50 (M) Mcl-1 FP. In outline:
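FP readout of relative binding potency. Mcl-1 5 nM final, fluorescein-labelled ligand 1 nM final; buffer 10 mM HEPES, 150 mM NaCl, 0.05% Tween 20, pH 7.4; 11-pt dilution series, 5% DMSO final.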
(Fluorescence polarisation rises when a labelled molecule tumbles more slowly, as on binding a larger partner.)

Assay [2] concerns H929 multiple myeloma tumour line. In words: In vitro cytotoxicity, Microculture Tetrazolium Assay. The format is cell-based. The conditions noted are these: H929 cells, 48 hours exposure, MTT, read-out: IC50 (μM) MTT H929. Here is the method:
The cytotoxicity studies were carried out on the H929 multiple myeloma tumour line.
The cells are distributed onto microplates and exposed to the test compounds for 48 hours.

Where [3] appears, read: fluorescence polarisation test, Method 2 values are underlined in the patent (underlining not visible here).
Where [4] appears, read: fluorescence polarisation, Method 1, or Method 2.

Mcl-1 protein, sequence (Q07820 whole entry): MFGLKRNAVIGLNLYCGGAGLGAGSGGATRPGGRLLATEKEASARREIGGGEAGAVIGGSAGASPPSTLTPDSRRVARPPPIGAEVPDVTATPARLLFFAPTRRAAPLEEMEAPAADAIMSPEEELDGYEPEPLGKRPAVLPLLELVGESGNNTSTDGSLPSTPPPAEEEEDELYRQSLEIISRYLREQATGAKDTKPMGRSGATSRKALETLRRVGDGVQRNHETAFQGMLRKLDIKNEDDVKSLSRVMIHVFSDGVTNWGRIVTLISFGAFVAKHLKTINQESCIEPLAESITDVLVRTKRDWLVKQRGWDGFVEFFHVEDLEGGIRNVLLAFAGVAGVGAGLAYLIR

The term IC50 denotes the concentration that gives 50% inhibition. Consider `Cc1ncccc1-c1nccc(COc2ccccc2CC(Oc2ncnc3sc(-c4ccc(F)cc4)c(-c4ccc(OCCN5CCN(C)CC5)c(Cl)c4C)c23)C(=O)O)n1` [Example 116, (2R)-2-{[(5Sa)-5-{3-chloro-2-methyl-4-[2-(4-methylpiperazin-1-yl)ethoxy]phenyl}-6-(4-fluorophenyl)thieno[2,3-d]pyrimidin-4-yl]oxy}-3-(2-{[2-(2-methylpyridin-3-yl)pyrimidin-4-yl]methoxy}phenyl)propanoic acid], for which the IC50 in assay [1] (setting [3]) was 2.9e-09 M; in assay [2] (Homo sapiens, NCI-H929, 48 h), 0.007 µM.

For the molecule `COc1ccccc1CC(Oc1ncnc2sc(-c3ccco3)c(-c3ccc(OCCN(C)C)c(Cl)c3C)c12)C(=O)O` [Example 320, (2R)-2-{[(5Sa)-5-{3-chloro-4-[2-(dimethylamino)ethoxy]-2-methylphenyl}-6-(furan-2-yl)thieno[2,3-d]pyrimidin-4-yl]oxy}-3-(2-methoxyphenyl)propanoic acid], the IC50 in assay [1] (setting [3]) worked out at 6.5e-09 M; in assay [2] (Homo sapiens, NCI-H929, 48 h), 0.471 µM.

Take `Cc1c(-c2c(-c3ccc(F)cc3)sc3ncnc(OC(Cc4ccccc4OCc4ccnc(OCc5cncn5C)n4)C(=O)O)c23)ccc(OCCN2CCN(C)CC2)c1Cl` [Example 60, (2R)-2-{[(5Sa)-5-{3-chloro-2-methyl-4-[2-(4-methylpiperazin-1-yl)ethoxy]phenyl}-6-(4-fluorophenyl)thieno[2,3-d]pyrimidin-4-yl]oxy}-3-[2-({2-[(1-methyl-1H-imidazol-5-yl)methoxy]pyrimidin-4-yl}methoxy)phenyl]propanoic acid]: the IC50 in assay [1] (setting [3]) stood at 2.4e-09 M; in assay [2] (Homo sapiens, NCI-H929, 48 h), 0.17 µM.

As to `Cc1c(-c2c(-c3ccc(F)cc3)sc3ncnc(OC(Cc4ccccc4OCC(F)(F)F)C(=O)O)c23)ccc(OCCN(C)C)c1Cl` [Example 127, (2R)-2-{[(5Sa)-5-{3-chloro-4-[2-(dimethylamino)ethoxy]-2-methylphenyl}-6-(4-fluorophenyl)thieno[2,3-d]pyrimidin-4-yl]oxy}-3-[2-(2,2,2-trifluoroethoxy)phenyl]propanoic acid], the IC50 in assay [1] (setting [3]) stood at 2e-08 M; in assay [2] (Homo sapiens, NCI-H929, 48 h), 0.558 µM.

For `CC#Cc1sc2ncnc(OC(Cc3ccccc3OC)C(=O)O)c2c1-c1ccc(OCCC2CCN(C)CC2)c(Cl)c1C` [Example 465, (2R)-2-{[(5Sa)-5-{3-chloro-2-methyl-4-[2-(1-methylpiperidin-4-yl)ethoxy]phenyl}-6-(prop-1-yn-1-yl)thieno[2,3-d]pyrimidin-4-yl]oxy}-3-(2-methoxyphenyl)propanoic acid], the IC50 in assay [1] (setting [4]) was found to be 2.5e-08 M; in assay [2] (Homo sapiens, NCI-H929, 48 h), 2.06 µM.

For `COCC#Cc1ccccc1CC(Oc1ncnc2sc(-c3ccc(F)cc3)c(-c3ccc(OCCN4CCN(C)CC4)c(Cl)c3C)c12)C(=O)O` [Example 656, (2R)-2-{[(5Sa)-5-{3-chloro-2-methyl-4-[2-(4-methylpiperazin-1-yl)ethoxy]phenyl}-6-(4-fluorophenyl)thieno[2,3-d]pyrimidin-4-yl]oxy}-3-[2-(3-methoxyprop-1-yn-1-yl)phenyl]propanoic acid], the IC50 amounted to 6.1e-08 M in assay [1] (setting [4]) and 0.523 µM in assay [2] (Homo sapiens, NCI-H929, 48 h).

With `CCc1sc2ncnc(OC(Cc3ccccc3)C(=O)O)c2c1-c1ccc(OCCCN(C)C)c(Cl)c1C` [Example 400, (2R)-2-[((5Sa)-5-{3-chloro-4-[3-(dimethylamino)propoxy]-2-methylphenyl}-6-ethylthieno[2,3-d]pyrimidin-4-yl)oxy]-3-phenylpropanoic acid], the IC50 in assay [1] (setting [4]) was found to be 8.4e-08 M; in assay [2] (Homo sapiens, NCI-H929, 48 h), 14.4 µM.

As to `CCCCn1nccc1COc1ccccc1CC(Oc1ncnc2sc(-c3ccc(OC)cc3)c(-c3ccc(OCCN4CCN(C)CC4)c(Cl)c3C)c12)C(=O)O` [Example 603, (2R)-3-{2-[(1-butyl-1H-pyrazol-5-yl)methoxy]phenyl}-2-{[(5Sa)-5-{3-chloro-2-methyl-4-[2-(4-methylpiperazin-1-yl)ethoxy]phenyl}-6-(4-methoxyphenyl)thieno[2,3-d]pyrimidin-4-yl]oxy}propanoic acid], the IC50 in assay [1] (setting [4]) was determined as 5e-09 M; in assay [2] (Homo sapiens, NCI-H929, 48 h), 0.036 µM.

For `Cc1c(-c2c(-c3ccc(F)cc3)sc3ncnc(OC(Cc4ccccc4OCc4ccnc(C5CC5)n4)C(=O)O)c23)ccc(OCCN2CCN(C)CC2)c1Cl` [Example 26, (2R)-2-{[(5Sa)-5-{3-chloro-2-methyl-4-[2-(4-methylpiperazin-1-yl)ethoxy]phenyl}-6-(4-fluorophenyl)thieno[2,3-d]pyrimidin-4-yl]oxy}-3-{2-[(2-cyclopropylpyrimidin-4-yl)methoxy]phenyl}propanoic acid], the IC50 amounted to 1.1e-08 M in assay [1] (setting [3]) and 0.028 µM in assay [2] (Homo sapiens, NCI-H929, 48 h).

Take `COc1ccccc1CC(Oc1ncnc2sc(-c3ccco3)c(-c3ccc(OC4CN5CCC4CC5)c(Cl)c3C)c12)C(=O)O` (single isomer, unassigned) [Example 308, (2R)-2-({(5Sa)-5-[4-((3R or S)-1-azabicyclo[2.2.2]oct-3-yloxy)-3-chloro-2-methylphenyl]-6-(furan-2-yl)thieno[2,3-d]pyrimidin-4-yl}oxy)-3-(2-methoxyphenyl)propanoic acid]: the results for the IC50 in assay [1] (setting [3]) and in assay [2] were 5.9e-09 M and 1.5 µM, respectively.

For `Cc1c(-c2c(-c3ccc(F)o3)sc3ncnc(OC(Cc4ccccc4OCc4cocn4)C(=O)O)c23)ccc(OCCN2CCN(C)CC2)c1Cl` [Example 191, (2R)-2-{[(5Sa)-5-{3-chloro-2-methyl-4-[2-(4-methylpiperazin-1-yl)ethoxy]phenyl}-6-(5-fluorofuran-2-yl)thieno[2,3-d]pyrimidin-4-yl]oxy}-3-[2-(1,3-oxazol-4-ylmethoxy)phenyl]propanoic acid], the IC50 in assay [1] (setting [3]) was 6.5e-09 M; in assay [2] (Homo sapiens, NCI-H929, 48 h) it was 0.063 µM.

With `COc1ccccc1-c1nccc(COc2ccccc2CC(Oc2ncnc3sc(-c4ccc(OCc5ccc(C)cc5)cc4)c(-c4ccc(OCCN5CCN(C)CC5)c(Cl)c4C)c23)C(=O)O)n1` [Example 768, (2R)-2-[((5Sa)-5-{3-chloro-2-methyl-4-[2-(4-methylpiperazin-1-yl)ethoxy]phenyl}-6-{4-[(4-methylbenzyl)oxy]phenyl}thieno[2,3-d]pyrimidin-4-yl)oxy]-3-(2-{[2-(2-methoxyphenyl)pyrimidin-4-yl]methoxy}phenyl)propanoic acid], the IC50 in assay [1] (setting [4]) turned out to be 1.04e-09 M; in assay [2] (Homo sapiens, NCI-H929, 48 h), 0.039 µM.

As to `Cc1c(-c2c(-c3ccco3)sc3ncnc(OC(Cc4ccccc4OCc4ncccc4Cl)C(=O)O)c23)ccc(OCCN2CCN(C)CC2)c1Cl` [Example 285, (2R)-2-{[(5Sa)-5-{3-chloro-2-methyl-4-[2-(4-methylpiperazin-1-yl)ethoxy]phenyl}-6-(furan-2-yl)thieno[2,3-d]pyrimidin-4-yl]oxy}-3-{2-[(3-chloropyridin-2-yl)methoxy]phenyl}propanoic acid], the IC50 was 1.7e-08 M in assay [1] (setting [3]) and 0.588 µM in assay [2] (Homo sapiens, NCI-H929, 48 h).

Turning to `COc1ccccc1C[C@@H](Oc1ncnc2sc(-c3ccc(F)c(Cl)c3F)c(-c3ccc(OCCN4CCN(C)CC4)c(Cl)c3C)c12)C(=O)O` [Example 536, (2R)-2-{[6-(3-chloro-2,4-difluorophenyl)-(5Sa)-5-{3-chloro-2-methyl-4-[2-(4-methylpiperazin-1-yl)ethoxy]phenyl}thieno[2,3-d]pyrimidin-4-yl]oxy}-3-(2-methoxyphenyl)propanoic acid], the results for the IC50 in assay [1] (setting [4]) and in assay [2] were 7.7e-08 M and 0.797 µM, respectively.

In the case of `COc1ccc(COc2ccc(-c3sc4ncnc(OC(Cc5ccccc5OCc5ccnc(-c6ccccc6OC)n5)C(=O)O)c4c3-c3ccc(OCCN4CCN(C)CC4)c(Cl)c3C)cc2)cc1` [Example 770, (2R)-2-[((5Sa)-5-{3-chloro-2-methyl-4-[2-(4-methylpiperazin-1-yl)ethoxy]phenyl}-6-{4-[(4-methoxybenzyl)oxy]phenyl}thieno[2,3-d]pyrimidin-4-yl)oxy]-3-(2-{[2-(2-methoxyphenyl)pyrimidin-4-yl]methoxy}phenyl)propanoic acid], the IC50 in assay [1] (setting [4]) amounted to 1.01e-09 M; in assay [2] (Homo sapiens, NCI-H929, 48 h), 0.01 µM.

For `Cc1c(-c2c(-c3ccc(F)cc3)sc3ncnc(OC(Cc4ccccc4OCc4ccncn4)C(=O)O)c23)ccc(OCCN2CCN(C)CC2)c1Cl` [Example 68, (2R)-2-{[(5Sa)-5-{3-chloro-2-methyl-4-[2-(4-methylpiperazin-1-yl)ethoxy]phenyl}-6-(4-fluorophenyl)thieno[2,3-d]pyrimidin-4-yl]oxy}-3-[2-(pyrimidin-4-ylmethoxy)phenyl]propanoic acid], the IC50 in assay [1] (setting [3]) turned out to be 9.1e-09 M; in assay [2] (Homo sapiens, NCI-H929, 48 h), 0.035 µM.

In the case of `Cc1c(-c2c(-c3ccco3)sc3ncnc(OC(Cc4ccccc4OCc4cn(Cc5ccccc5)nn4)C(=O)O)c23)ccc(OCCN2CCN(C)CC2)c1Cl` [Example 294, (2R)-3-{2-[(1-benzyl-1H-1,2,3-triazol-4-yl)methoxy]phenyl}-2-{[(5Sa)-5-{3-chloro-2-methyl-4-[2-(4-methylpiperazin-1-yl)ethoxy]phenyl}-6-(furan-2-yl)thieno[2,3-d]pyrimidin-4-yl]oxy}propanoic acid], the IC50 came out at 1.6e-08 M in assay [1] (setting [3]) and 0.886 µM in assay [2] (Homo sapiens, NCI-H929, 48 h).

Turning to `Cc1c(-c2c(-c3ccco3)sc3ncnc(OC(Cc4ccccc4OCc4cc5ccccc5cn4)C(=O)O)c23)ccc(OCCN2CCN(C)CC2)c1Cl` [Example 230, (2R)-2-{[(5Sa)-5-{3-chloro-2-methyl-4-[2-(4-methylpiperazin-1-yl)ethoxy]phenyl}-6-(furan-2-yl)thieno[2,3-d]pyrimidin-4-yl]oxy}-3-[2-(isoquinolin-3-ylmethoxy)phenyl]propanoic acid], the IC50 was 1.2e-08 M in assay [1] (setting [3]) and 0.312 µM in assay [2] (Homo sapiens, NCI-H929, 48 h).

The values are drawn from US9670227B2, “Thienopyrimidine derivatives, a process for their preparation and pharmaceutical compositions containing them” (LES LABORATOIRES SERVIER, priority 2013, dated 2017).
